Strand notation (5' to 3'): a small letter for the sugar, then the base; units joined by * are phosphorothioate-linked, units joined directly phosphodiester-linked; [ ] holds rarer units or linkages, { } end groups; capitals alone tell only the bases. k = constrained ethyl (cEt); [5mC] = 5-methylcytosine; d = 2'-deoxy (DNA)
What follows are substances tested on Yap1 mRNA (assay: Antisense inhibition of human Yap1 in A-431 cells by cEt gapmers, single dose (Example 2, RTS4814)). Settings: A-431 cells, 5,000 cells per well, free uptake, 2,000 nM modified oligonucleotide, approx. 48 hours, RTS4814, normalized to RIBOGREEN; Table 4; asterisk (*) = targets amplicon region of primer probe set.
Type: cell-based
How it was run: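 Single-dose knockdown screen of 3-10-3 cEt phosphorothioate gapmers at 2,000 nM added by free uptake to A-431 cells. After roughly 48 h, RNA was isolated and Yap1 transcript measured by RT-qPCR, with results given as % UTC.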

Row | Substance | YAP1 (% UTC)
1 | 716523 (antisense k[5mC]*kA*kA*dA*dT*dT*dA*dA*dA*dG*dT*dT*dG*kA*kG*kG) [Compound 716523] | 37 % UTC
2 | 716445 (kG*kT*kA*dT*dG*dT*dG*dG*d[5mC]*dA*dA*dT*dA*kA*kT*kT; antisense) [Compound 716445] | 28 % UTC
3 | 716514 (antisense kG*k[5mC]*kT*dG*dA*dT*dA*dT*dA*dT*dA*dA*dG*kA*kT*kA) [Compound 716514] | 68 % UTC

Same assay, conditions: Table 5; A-431 cells, 5,000 cells per well, free uptake, 2,000 nM modified oligonucleotide, approx. 48 hours; RTS4814; normalized to RIBOGREEN; Yap1 mRNA relative to untreated control cells

Row | Substance | YAP1 (% UTC)
4 | 716503 (kT*kT*kA*dT*dT*dA*dT*dG*dA*dG*dT*dG*dA*kT*k[5mC]*kA; antisense) [Compound 716503] | 33 % UTC
5 | 716353 (kG*k[5mC]*kA*dT*d[5mC]*d[5mC]*d[5mC]*d[5mC]*d[5mC]*dG*d[5mC]*d[5mC]*d[5mC]*k[5mC]*kG*kG; antisense) [Compound 716353] | 98 % UTC
6 | 716530 (antisense kA*k[5mC]*kA*dT*d[5mC]*dA*dA*dG*dG*d[5mC]*dT*dA*dT*kG*kA*kT) [Compound 716530] | 83 % UTC
7 | 716494 (kA*kA*kG*dG*dG*d[5mC]*dT*dT*dA*dT*dT*d[5mC]*dT*kA*kG*kA; antisense) [Compound 716494] | 112 % UTC
8 | 716371 (kT*kG*kG*dA*dG*dT*d[5mC]*dA*dG*dG*dG*d[5mC]*dT*k[5mC]*k[5mC]*kT; antisense) [Compound 716371] | 115 % UTC
9 | 716533 (antisense k[5mC]*kA*kA*dT*dT*d[5mC]*dA*dA*dG*dA*dA*dT*dA*k[5mC]*k[5mC]*k[5mC]) [Compound 716533] | 64 % UTC

Same assay, conditions: Table 6; A-431 cells, 5,000 cells per well, free uptake, 2,000 nM modified oligonucleotide, approx. 48 hours; RTS4814; normalized to RIBOGREEN; Yap1 mRNA relative to untreated control cells

Row | Substance | YAP1 (% UTC)
10 | 716450 (kA*kA*k[5mC]*dA*dG*dA*dT*dT*d[5mC]*dA*d[5mC]*dT*dA*kA*kT*kA; antisense) [Compound 716450] | 83 % UTC
11 | 716423 (kG*k[5mC]*kA*dA*dA*dA*dT*dA*dG*dA*dG*dG*dA*kT*kT*kA; antisense) [Compound 716423] | 43 % UTC

Same assay, conditions: Table 18; A-431 cells, 5,000 cells per well, free uptake, 2,000 nM modified oligonucleotide, approx. 48 hours; RTS4814; normalized to RIBOGREEN; Yap1 mRNA as percent of untreated control

Row | Substance | YAP1 (% UTC)
12 | 1075332 (kA*kG*k[5mC]*dG*dG*dG*dT*dT*dT*dA*dG*dA*dA*kT*kG*k[5mC]; antisense) [Compound 1075332] | 66 % UTC
13 | 1074116 (antisense kG*kA*kG*dA*dA*d[5mC]*dT*dT*dT*dT*dT*d[5mC]*d[5mC]*k[5mC]*kT*k[5mC]) [Compound 1074116] | 112 % UTC
14 | 1074308 (antisense kG*k[5mC]*kA*dT*dT*dG*d[5mC]*d[5mC]*dT*dG*dT*dG*dG*k[5mC]*k[5mC]*kT) [Compound 1074308] | 132 % UTC
15 | 1074852 (antisense kA*kA*kT*dT*dG*dT*dT*dA*dT*dG*dA*dT*dA*kG*kG*k[5mC]) [Compound 1074852] | 4 % UTC
16 | 1075204 (antisense kG*kT*kT*dA*dA*dA*d[5mC]*dA*d[5mC]*dA*dT*d[5mC]*dT*k[5mC]*kA*kG) [Compound 1075204] | 43 % UTC

Same assay, conditions: Table 19; A-431 cells, 5,000 cells per well, free uptake, 2,000 nM modified oligonucleotide, approx. 48 hours; RTS4814; normalized to RIBOGREEN; Yap1 mRNA as percent of untreated control

Row | Substance | YAP1 (% UTC)
17 | 1075717 (k[5mC]*kA*kT*dA*dA*dA*dT*dT*dT*d[5mC]*dA*dG*d[5mC]*k[5mC]*kG*kA; antisense) [Compound 1075717] | 10 % UTC
18 | 1075429 (antisense k[5mC]*kT*kT*dT*dA*d[5mC]*dT*dA*dT*d[5mC]*dT*dG*dG*kG*kT*k[5mC]) [Compound 1075429] | 23 % UTC

Same assay, conditions: Table 20; Yap1 mRNA, percent of untreated control; 3-10-3 cEt gapmers targeting SEQ ID NO.: 1 and 2

Row | Substance | YAP1 (% UTC)
19 | 1074630 (antisense kA*kG*kA*dG*dA*dT*dT*dT*dT*dA*dT*dG*d[5mC]*k[5mC]*kT*kG) [Compound 1074630] | 5 % UTC
20 | 1075910 (kG*kA*kA*dA*dT*dA*dA*dG*dG*dA*dG*dT*dA*kG*kG*kT; antisense) [Compound 1075910] | 93 % UTC
21 | 1075782 (kT*kA*kT*dT*dA*dG*dG*dT*dT*dT*d[5mC]*d[5mC]*d[5mC]*kG*kT*kT; antisense) [Compound 1075782] | 10 % UTC
22 | 1074246 (antisense kA*kA*kG*dA*dA*dG*dT*dA*dT*d[5mC]*dT*d[5mC]*dT*kG*kA*k[5mC]) [Compound 1074246] | 11 % UTC
23 | 1074982 (antisense kA*k[5mC]*k[5mC]*dT*dT*dT*dT*dA*dT*dT*dG*d[5mC]*d[5mC]*kA*kG*kT) [Compound 1074982] | 13 % UTC
24 | 1075686 (kG*kT*kA*dA*dT*dT*dA*d[5mC]*dA*dG*dT*dG*dT*k[5mC]*kT*k[5mC]; antisense) [Compound 1075686] | 10 % UTC
25 | 1076486 (antisense kG*kA*kA*dA*d[5mC]*dG*dA*dA*dA*d[5mC]*dG*dG*dG*kA*kA*kA) [Compound 1076486] | 5 % UTC

Same assay, conditions: Table 21; Yap1 mRNA, percent of untreated control; 3-10-3 cEt gapmers targeting SEQ ID NO.: 1 and 2

Row | Substance | YAP1 (% UTC)
26 | 1076103 (kG*k[5mC]*kT*dT*dA*dA*d[5mC]*dA*dA*dA*dT*d[5mC]*dA*kG*k[5mC]*k[5mC]; antisense) [Compound 1076103] | 79 % UTC
27 | 1075111 (antisense kT*kA*kG*dG*dA*dA*dT*dA*dT*dG*dG*dG*dT*kA*kG*kT) [Compound 1075111] | 5 % UTC
28 | 1076487 (antisense kG*kT*kA*d[5mC]*dG*dA*dA*dA*d[5mC]*dG*dA*dA*dA*k[5mC]*kG*kG) [Compound 1076487] | 21 % UTC
29 | 1074631 (antisense k[5mC]*kA*kT*dA*dG*d[5mC]*dA*dG*d[5mC]*dT*dT*dT*dT*kG*k[5mC]*k[5mC]) [Compound 1074631] | 9 % UTC
30 | 1075847 (k[5mC]*kT*kT*dT*dA*dT*dA*dG*d[5mC]*dA*dG*dA*dT*kG*k[5mC]*k[5mC]; antisense) [Compound 1075847] | 14 % UTC

Same assay, conditions: Table 22; Yap1 mRNA as percent of untreated control; 3-10-3 cEt gapmers; single dose

Row | Substance | YAP1 (% UTC)
31 | 1075080 (antisense kA*kT*kT*dA*d[5mC]*dA*dA*dA*dG*dA*d[5mC]*dA*dG*k[5mC]*k[5mC]*k[5mC]) [Compound 1075080] | 18 % UTC
32 | 1076104 (kA*k[5mC]*kG*dA*dA*dA*dT*dA*dG*dT*dA*dA*d[5mC]*kT*kG*kT; antisense) [Compound 1076104] | 24 % UTC

Same assay, conditions: Table 23; Yap1 mRNA as percent of untreated control; 3-10-3 cEt gapmers; single dose

Row | Substance | YAP1 (% UTC)
33 | 1075817 (k[5mC]*k[5mC]*kT*dA*dA*dA*dG*dA*dA*dG*dT*d[5mC]*dT*kT*kG*kG; antisense) [Compound 1075817] | 100 % UTC
34 | 1075913 (k[5mC]*k[5mC]*k[5mC]*d[5mC]*dT*dA*dT*dA*d[5mC]*dT*dT*dT*dT*kT*kG*kA; antisense) [Compound 1075913] | 46 % UTC

Same assay, conditions: Table 24; Yap1 mRNA as percent of untreated control; 3-10-3 cEt gapmers targeting SEQ ID NO.: 1, and 2

Row | Substance | YAP1 (% UTC)
35 | 1076170 (kA*kG*kT*dA*dA*dA*dG*dA*dG*dT*dA*d[5mC]*dT*kG*kT*kA; antisense) [Compound 1076170] | 16 % UTC
36 | 1075146 (antisense kG*kT*kA*dT*dT*dA*dA*dG*dG*dG*dA*dT*dT*kT*kT*k[5mC]) [Compound 1075146] | 8 % UTC
37 | 1074794 (k[5mC]*kA*kA*dA*dT*d[5mC]*dA*dA*dT*dG*dT*dG*d[5mC]*kT*k[5mC]*k[5mC]; antisense) [Compound 1074794] | 5 % UTC

Same assay, conditions: Table 25; Yap1 mRNA as percent of untreated control; 3-10-3 cEt gapmers targeting SEQ ID NO.: 1, and 2

Row | Substance | YAP1 (% UTC)
38 | 1075019 (antisense k[5mC]*kA*kT*dT*dA*dG*dA*dG*dT*dT*dT*dG*dA*kT*kT*kA) [Compound 1075019] | 64 % UTC
39 | 1074667 (antisense k[5mC]*k[5mC]*k[5mC]*dA*dA*d[5mC]*dA*dA*d[5mC]*dA*dT*dG*d[5mC]*kT*kA*kT) [Compound 1074667] | 15 % UTC

Same assay, conditions: Table 32; Yap1 mRNA, percent of untreated control; 3-10-3 cEt gapmers targeting SEQ ID NO.: 1, and 2

Row | Substance | YAP1 (% UTC)
40 | 1075442 (antisense kT*kA*kT*dT*dA*dG*dT*dT*d[5mC]*dT*dA*d[5mC]*dG*kA*kT*kT) [compound 1075442] | 71 % UTC

Same assay, conditions: Table 33; Yap1 mRNA, percent of untreated control; 3-10-3 cEt gapmers targeting SEQ ID NO.: 1, and 2

Row | Substance | YAP1 (% UTC)
41 | 1074547 (kG*kA*kG*d[5mC]*dA*d[5mC]*dT*d[5mC]*d[5mC]*d[5mC]*d[5mC]*dT*dA*kG*kG*k[5mC]; antisense) [compound 1074547] | 71 % UTC
42 | 1076531 (kA*k[5mC]*kT*dA*dT*dA*dA*dA*dG*dG*dG*dT*dT*kT*kA*kG; antisense) [compound 1076531] | 66 % UTC

Same assay, conditions: Yap1 mRNA as percent of untreated control; A-431 cells; 3-10-3 cEt gapmers targeting SEQ ID NO.: 1, and 2; Table 30

Row | Substance | YAP1 (% UTC)
43 | 1075568 (kT*kT*kA*dT*dT*dT*dA*dA*dG*dT*dT*dG*dG*kG*kA*kG; antisense) [compound 1075568] | 23 % UTC
44 | 1075216 (kT*kA*kT*dT*dT*dT*dA*d[5mC]*dA*d[5mC]*dG*dA*dA*k[5mC]*kT*kA; antisense) [compound 1075216] | 55 % UTC

Same assay, conditions: Yap1 mRNA as percent of untreated control; A-431 cells; 3-10-3 cEt gapmers targeting SEQ ID NO.: 1, and 2; Table 31

Row | Substance | YAP1 (% UTC)
45 | 1075633 (antisense k[5mC]*kT*kA*dT*dA*dT*dT*dG*dG*d[5mC]*dT*d[5mC]*d[5mC]*kT*kA*kG) [compound 1075633] | 82 % UTC
46 | 1074481 (kA*kA*kT*dA*dT*dG*dG*dT*d[5mC]*dA*dT*dT*dT*kG*k[5mC]*k[5mC]; antisense) [compound 1074481] | 14 % UTC

— patent US11214803B2, “Modulators of YAP1 expression” (Ionis Pharmaceuticals, Inc., priority 2019, dated 2022)
